We go through four molecules from patent US9464097B2, “Gold complexes” (UNIVERSITY COURT OF THE UNIVERSITY OF ST. ANDREWS, priority 2010, dated 2016).

For data set [1], the system named is LNCaP (prostate carcinoma) cell line. Briefly: Cytotoxicity assay (CCK-8 viability), LNCaP. It is filed as cell-based, human. Conditions: 3 days incubation. How it is done:
(§1) Cytotoxicity assay: The compound/complex was dissolved in DMSO and diluted in DMSO. The final dilution was in the respective culture medium and the final concentration of DMSO was always below 0.01%. Cells were pipetted into microtitre plates (NUNC) at 4000 cells/well and incubated at 37° C. in 5% CO2 in air for 24 hr. Varying concentrations of the compounds/complexes were applied to the cells in 10 μl volumes. The plates were incubated for 3 days at 37° C. 5% CO2 in air. The viability of the cells was measured using the Dojindo kit CCK-8 (Cell counting Kit—8, Dojindo technologies USA, CK04-11) method after incubation for 3 hr in the absence of light. The plates were read on an ELISA plate reader at a wavelength of 450 nm.

The test system of data set [2] is human urothelial cell line (SV-HUC-1). Briefly: Cytotoxicity assay (CCK-8 viability), SV-HUC-1. As to conditions: SV-HUC-1, 3 days incubation. In kind it is cell-based. How it is done:
as §1

A further data set deals with human cancer cell lines. Briefly: Cytotoxicity towards human cancer cell lines, overall comparison with cisplatin. Conditions: cytotoxicity across the tested cell lines. In kind it is cell-based. How it is done: as §1
For data set [3] the following is noted: proton borne by the heteroatom, literature value; cited from earlier work.

On to `N.N.[Cl][Pt][Cl]` [cisplatin], for which the IC50 – broadly, the concentration needed to halve the response being measured – in data set [1] stood at 18 µM; in data set [2] it was 25 µM.
For the molecule `CC(C)c1cccc(C(C)C)c1N1C=CN(c2c(C(C)C)cccc2C(C)C)[CH]1[Au][OH]` [complex 2, [Au(OH)(IPr)]], the “Overall activity compared with cisplatin” value in the data set with human cancer cell lines was “superior to that displayed by cisplatin”.
As for `Cc1ccc(O)cc1` [p-cresol (14b), p-cresol], the pKa – broadly, the negative logarithm of the acid dissociation constant – in data set [3] is listed as 18.9.
`Cc1ccc(S)cc1` [p-thiocresol (14a), p-thiocresol]: the pKa in data set [3] was 10.3.
